Laboratory results: patent publication USRE35748E, “Treatments employing drug containing matrices for introduction into cellular lesion areas” (priority 1995, dated 1998)
Where a name gives a salt, the structure may show the parent alone.

What was measured:
skin overlying the tumor = test: Skin reaction of skin overlying the tumor; type: in vivo, C3H/He mice
Source text: The skin reaction is scored as follows:
1 = superficial inflammation;
post injection. The skin reaction is scored as follows:
(§1) Otherwise, the procedure was the same. The following Table 5 indicates the results.
(§2) The following Table 6 provides the results.

white blood cells = test: White blood cell count in treated tumor-bearing mice; type: in vivo, C3H/He mice; conditions: 5-FU 100 mg/kg, day 4 post-treatment, mean ± S.E. (Table 3)
Source text: the tail of treatment mice.
as §1, §2

[1] = Acute animal toxicity / survival; conditions: for Animal Survival: ADM 15 mg/kg, deaths usually within 2 days
Method: The adriamycin in distilled water (4.45 mg/ml) was mixed with 36 mg/ml bovine collagen (BC) 1:1 to yield a composition ratio of 2.25 mg adriamycin:18 mg BC/ml.

Row | SMILES | Skin Reaction (skin overlying the tumor; 5-FU 75 mg/Kg, i.p., 5 min before X-rays (1000 rad), score 0-3 (Table 9)) | Skin Reaction (skin overlying the tumor; 5-FU 75 mg/Kg, i.p., no X-rays, score 0-3 (Table 9)) | Skin Reaction (skin overlying the tumor; 5-FU 100 mg/kg, i.t. (EPI 5 mg/kg where present), Day 8, score 0 = no effect, 1 = superficial inflammation, 2 = scab, 3 = ulcer (Table 3)) | White Blood Cells/mm^3 (white blood cells; i.p.) | White Blood Cells/mm^3 (white blood cells; i.t. (EPI 5 mg/kg where present)) | Skin Reaction (skin overlying the tumor; ADM 15 mg/kg, i.t., Day 8, score 0 = no effect, 1 = superficial inflammation, 2 = scab, 3 = ulcer) | toxicity ([1]; 15 mg/kg, intratumoral injection) | Animal Survival ([1]; i.p.) [%] | Animal Survival ([1]; i.t.) [%]
1 | O=c1[nH]cc(F)c(=O)[nH]1 [5-FU, 5-fluorouracil] | 2 | 2 | 0 | 4.5 ± 0.6 Cells/mm^3 (×10^3) | 3.5 ± 0.5 Cells/mm^3 (×10^3) |  |  |  | 
2 | COc1cccc2c1C(=O)c1c(O)c3c(c(O)c1C2=O)C[C@@](O)(C(=O)CO)C[C@@H]3O[C@H]1C[C@H](N)[C@H](O)[C@H](C)O1 [Free ADM, doxorubicin-HCl] |  |  |  |  |  | 2.0 | non-toxic | 25 | 100
